Data taken from ChEMBL document CHEMBL2406972, “Synthesis and antitumor activities of novel dibenzo[b,d]furan-imidazole hybrid compounds” (Eur J Med Chem, 2013).

Assays:
Format in all cases: functional, cell-based
SMMC-7721 = assay: Cytotoxicity against human SMMC7721 cells after 48 hrs by MTT assay; details: SMMC-7721, 48 h
SW480 = assay: Cytotoxicity against human SW480 cells after 48 hrs by MTT assay; details: SW480, 48 h
A549 = assay: Cytotoxicity against human A549 cells after 48 hrs by MTT assay; details: A549, 48 h
MCF7 = assay: Cytotoxicity against human MCF7 cells after 48 hrs by MTT assay; details: MCF7, 48 h
HL-60 = assay: Cytotoxicity against human HL60 cells after 48 hrs by MTT assay; details: HL-60, 48 h

Row | SMILES | IC50 (SMMC-7721) [µM] | IC50 (SW480) [µM] | IC50 (A549) [µM] | IC50 (MCF7) [µM] | IC50 (HL-60) [µM]
1 | O=C(c1ccccc1)C(c1ccccc1)[n+]1ccn(C(c2ccccc2)c2ccc3oc4ccccc4c3c2)c1 (stereo not given) | 2.38 | 2.36 | 3.75 | 1.46 | 0.52
2 | CC(c1ccc2oc3ccccc3c2c1)n1c[n+](CC(=O)c2ccc(F)cc2)c2ccccc21 (stereo not given) | 6.31 | 9.77 | 13.7 | 3.85 | 1.67
3 | CCCC[n+]1cn(C(C)c2ccc3oc4ccccc4c3c2)c2ccccc21 (stereo not given) | 3.78 | 11.1 | 8.55 | 9.41 | 1.67
4 | CC(c1ccc2oc3ccccc3c2c1)n1c[n+](CC(=O)c2ccc3ccccc3c2)c2ccccc21 (stereo not given) | 2.24 | 2.95 | 3.46 | 3.14 | 1.65
5 | CC(c1ccc2oc3ccccc3c2c1)n1c[n+](C(C(=O)c2ccccc2)c2ccccc2)c2ccccc21 (stereo not given) | 5.4 | 10.5 | 12.7 | 9.35 | 2.79
6 | O=C(C[n+]1cn(C(c2ccccc2)c2ccc3oc4ccccc4c3c2)c2ccccc21)c1ccc(Br)cc1 (stereo not given) | 3.36 | 3.83 | 3.8 | 2.91 | 2.1
7 | CCCC[n+]1ccn(C(C)c2ccc3oc4ccccc4c3c2)c1C (stereo not given) | 7.98 | 10 | 13 | 6.6 | 3.08
8 | O=C(C[n+]1ccn(C(c2ccccc2)c2ccc3oc4ccccc4c3c2)c1)c1ccc(O)cc1 (stereo not given) | 6.28 | 15.2 | 6.8 | 7.05 | 2.61
9 | O=C(C[n+]1cn(C(c2ccccc2)c2ccc3oc4ccccc4c3c2)c2ccccc21)c1ccc(O)cc1 (stereo not given) | 10.8 | 15.6 | 17.7 | 9.15 | 2.89
10 | Cc1n(C(C)c2ccc3oc4ccccc4c3c2)cc[n+]1CC(=O)c1ccc(F)cc1 (stereo not given) | 4.7 | 12.3 | 15.4 | 16.2 | 2.96
11 | CCCC[n+]1ccn(C(C)c2ccc3oc4ccccc4c3c2)c1 (stereo not given) | 14.2 | 24.1 | 12.8 | 9.11 | 5.63
12 | COc1ccc(C(=O)C[n+]2ccn(C(C)c3ccc4oc5ccccc5c4c3)c2C)cc1 (stereo not given) | 1.43 | 5.78 | 3.02 | 1.29 | 0.7
13 | COc1ccc(C(=O)C[n+]2ccn(C(C)c3ccc4oc5ccccc5c4c3)c2)cc1 (stereo not given) | 9.98 | 12.7 | 12.2 | 9.02 | 3.45
14 | COc1ccc(C(=O)C[n+]2ccn(C(c3ccccc3)c3ccc4oc5ccccc5c4c3)c2)cc1 (stereo not given) | 5.59 | 3.76 | 7.27 | 4.12 | 2.09
15 | Cc1n(C(C)c2ccc3oc4ccccc4c3c2)cc[n+]1Cc1ccc([N+](=O)[O-])cc1 (stereo not given) | > 40 | > 40 | > 40 | > 40 | 14.6
16 | COc1ccc(C(=O)C[n+]2cn(C(c3ccccc3)c3ccc4oc5ccccc5c4c3)c3ccccc32)cc1 (stereo not given) | 2.1 | 5.56 | 3.34 | 4.78 | 0.64
17 | CC(c1ccc2oc3ccccc3c2c1)n1cc[n+](CC(=O)c2ccccc2)c1 (stereo not given) | 12.1 | 14.4 | 27 | 14.1 | 2.55
18 | CC(c1ccc2oc3ccccc3c2c1)n1cc[n+](CC(=O)c2ccc(F)cc2)c1 (stereo not given) | 17.5 | 16.4 | 22.6 | 16.7 | 2.64
19 | Cc1n(C(c2ccccc2)c2ccc3oc4ccccc4c3c2)cc[n+]1Cc1ccc([N+](=O)[O-])cc1 (stereo not given) | 18.5 | 18.2 | > 40 | 15.3 | 8.74
20 | Cc1n(C(C)c2ccc3oc4ccccc4c3c2)cc[n+]1CC(=O)c1ccc(Br)cc1 (stereo not given) | 6.4 | 11.8 | 12.8 | 6.77 | 2.67
21 | CCCC[n+]1ccn(C(c2ccccc2)c2ccc3oc4ccccc4c3c2)c1 (stereo not given) | 8.13 | 13.1 | 11.4 | 6.03 | 1.1
22 | CC(c1ccc2oc3ccccc3c2c1)n1cc[n+](CC(=O)c2ccc3ccccc3c2)c1 (stereo not given) | 6.43 | 3.69 | 8.46 | 3.5 | 2.46
23 | CC(c1ccc2oc3ccccc3c2c1)n1cnc2ccccc21 (stereo not given) | > 40 | > 40 | > 40 | > 40 | > 40
24 | CCCC[n+]1cn(C(c2ccccc2)c2ccc3oc4ccccc4c3c2)c2ccccc21 (stereo not given) | 2.93 | 8 | 4.61 | 3.37 | 1.12
